# Assay results taken from article PMC9925730, “Controlled sequential in situ self-assembly and disassembly of a fluorogenic cisplatin prodrug for cancer theranostics” (Nature Communications, 2023).
# “And” between values parts separate entries of the source, which are not always exact repeats. Equal values may be shown once.
# Legend:
# [1] = Urine and faeces analysis by ICP-OES (Pt element); format: in vivo, mice; design: Pt in urine / Pt in feces: unit not given beside the values
# [2] = Urine and faeces analysis by ICP-OES (Pt element); format: in vivo, mice; design: Pt in urine / Pt in feces: unit not given beside the values; remark: listed apart in the source
# Protocol: page 47: determined using ELISA kits according to manufacturer 's protocol. Determination of the blood circulation half-life. […], or CDDP (at a dose of 2.25 mg kg-1 Pt) was i.v. injected into healthy female BALB/c nude mice (6-8 weeks old). […] The collected blood was digested with concentrated HNO3 (65-70%, 2 mL) and HCl (36~38%, 1 mL) at 90 °C overnight. The residues were then diluted with 5 mL 2% HNO3 and 5% HCl solution, and the concentrations of Pt element were determined by ICP-OES, which were further applied to calculate the contents of Pt element in the blood. The plot of the percentage of Pt element remained in the blood versus injection time to yield the pharmacokinetic time. Urine and Faeces analysis. […] Urine and faeces were collected at 2 (for 0-2 h), 4 (for 2-4 h), 8 (for 4- 8 h) and 12 h (for […]), which were diluted in methanol and centrifuged at 3,600 × g for 10 min, followed by filtering via a 0.22 μm syringe filter. The solutions were analyzed by HPLC (660 nm detection) to characterize all the mCy-containing compounds. Using the established standard curves for […] Cy-COOH, the amount of each compound in the urine and faeces could be calculated, which were further applied to determine the percentage of them in the urine and faeces. The data were summarized in Supplementary Tables 5-8. […] Urine and faeces were collected and weighed. The urine and faeces were digested with concentrated HNO3 (65~70%) and HCl (36~38%) at 90 °C for 24 h. The solution was diluted to 5 mL 2% HNO3 and 5% HCl solution, and the concentration of Pt element was measured by ICP-OES, which was further applied to calculate the percentage of Pt in corresponding urine and faeces. The data were summarized in Supplementary Tables 9 and 10. 47
# [3] = General design summary of signals and cytotoxicity (Fig. 1a)
# Excerpt: P-CyPt is designed to (1) offer activatable near-infrared (NIR) FL and PA signals for bimodality imaging through ALP-mediated in situ self-assembly and (2) release CDDP for on-demand therapy via GSH-triggered disassembly (Fig. 1a). […] After systemic administration, P-CyPt as a small molecule can extravasate and penetrate deeply into tumor tissues (Fig. 1b). In tumor tissues that are membrane-bound ALP positive, rapid dephosphorylation of P-CyPt by the membrane-bound ALP generates CyPt, switching on NIR FL (λem = 710 nm) and PA signals (λ = 700 nm); moreover, CyPt with increased hydrophobicity is susceptible to self-assembly into Pt(IV) nanoparticles (Pt^IVNPs), which turns on another PA signal (λ = 750 nm) resulting from the aggregation-caused bathochromic shift. The on-site formed Pt^IVNPs can anchor on the cell membranes, which attenuate diffusion, prolong retention, and enhance translocation into cells[32],[33]. Within tumor cells, the abundant endogenous GSH can reduce Pt(IV) into Pt(II), producing negatively charged Cy-COOH that promotes NPs disassembly and accelerates release of CDDP intracellularly. This process dramatically raises intracellular CDDP’s concentration while depletes GSH’s level to effectively kill tumor cells. Moreover, the disassembly of Pt^IVNPs into Cy-COOH further increases NIR FL (called as “ON-ON”) as the aggregation-caused quenching (ACQ) effect is eliminated; however, the PA signal at 750 nm is turned off but the PA signal at 700 nm is kept at “ON” state. The sequential switches in NIR FL and PA bimodal imaging signals can allow P-CyPt to reliably monitor the ALP-triggered in situ self-assembly and GSH-driven disassembly process in vivo, facilitating to guide precise chemotherapy of tumors.
# [4] = Urine and faeces analysis by HPLC (mCy-containing compounds); format: in vivo; details: Time period 8-12 h; individual mice
# [5] = i.v. 2.25 mg kg-1 Pt, 0-2 h, ICP-OES
structure (smiles),measurement,setting,value
CC1(C)C(/C=C/C2=C3Oc4cc(OP(=O)(O)O)c(Cl)cc4C=C3CCC2)=[N+](CCCNC(=O)[C@@H](Cc2ccccc2)NC(=O)[C@@H](Cc2ccccc2)NC(=O)CCC(=O)[O][Pt]([NH2])([NH2])([OH])([Cl])[Cl])c2ccccc21 [P-CyPt],Percentage of Pt element excreted to the faeces,[1]; 8-12 h,4.40 ± 0.52%
same,Pt in urine,"[1]; Fig.6g, 8-12 h, single mice",3.228 and 4.327 and 2.669
same,Pt in feces,"[1]; Fig.6h, 8-12 h, single mice",4.215 and 4.995 and 4.002
same,Pt in feces,"[1]; feces collected 8-12 h, mouse-2",4.995
same,Percentage of Pt element excreted to the faeces,[2]; 2-4 h,5.92 ± 0.64%
same,Percentage of Pt element excreted to the urine,[2]; 2-4 h,13.38 ± 1.45%
same,Percentage of Pt element excreted to the faeces,[2]; 4-8 h,16.94 ± 1.87%
same,Percentage of Pt element excreted to the urine,[2]; 4-8 h,9.24 ± 1.49%
same,Percentage of Pt element excreted to the urine,[2]; 8-12 h,3.41 ± 0.84%
same,Pt in urine,"[2]; Fig.6g, 0-2 h, mean of 3 mice",15.772
same,Pt in urine,"[2]; Fig.6g, 0-2 h, single mice",15.461 and 17.665 and 14.190
same,Pt in urine,"[2]; Fig.6g, 2-4 h, mean of 3 mice",13.380
same,Pt in urine,"[2]; Fig.6g, 2-4 h, single mice",13.090 and 14.953 and 12.095
same,Pt in urine,"[2]; Fig.6g, 4-8 h, mean of 3 mice",9.236
same,Pt in urine,"[2]; Fig.6g, 4-8 h, single mice",9.456 and 10.608 and 7.644
same,Pt in urine,"[2]; Fig.6g, 8-12 h, mean of 3 mice",3.408
same,Pt in feces,"[2]; Fig.6h, 0-2 h, mean of 3 mice",0.386
same,Pt in feces,"[2]; Fig.6h, 0-2 h, single mice",0.346 and 0.489 and 0.323
same,Pt in feces,"[2]; Fig.6h, 2-4 h, mean of 3 mice",5.927
same,Pt in feces,"[2]; Fig.6h, 2-4 h, single mice",5.543 and 6.667 and 5.573
same,Pt in feces,"[2]; Fig.6h, 4-8 h, mean of 3 mice",16.944
same,Pt in feces,"[2]; Fig.6h, 4-8 h, single mice",16.548 and 18.982 and 15.301
same,Pt in feces,"[2]; Fig.6h, 8-12 h, mean of 3 mice",4.404
same,Pt accumulatively cleared (urine + faeces),[2]; during 12 h,~ 69.4%
same,Pt in feces,"[2]; feces collected 0-2 h, mouse-1",0.346
same,Pt in feces,"[2]; feces collected 0-2 h, mouse-2",0.489
same,Pt in feces,"[2]; feces collected 0-2 h, mouse-3",0.323
same,Pt in feces,"[2]; feces collected 2-4 h, mouse-1",5.543
same,Pt in feces,"[2]; feces collected 2-4 h, mouse-2",6.667
same,Pt in feces,"[2]; feces collected 2-4 h, mouse-3",5.573
same,Pt in feces,"[2]; feces collected 4-8 h, mouse-1",16.548
same,Pt in feces,"[2]; feces collected 4-8 h, mouse-2",18.982
same,Pt in feces,"[2]; feces collected 4-8 h, mouse-3",15.301
same,Pt in feces,"[2]; feces collected 8-12 h, mouse-1",4.215
same,Pt in feces,"[2]; feces collected 8-12 h, mouse-3",4.002
same,Percentage of Pt element excreted to the faeces,[2]; [5],0.38 ± 0.090%
same,Percentage of Pt element excreted to the urine,[2]; [5],15.78 ± 1.76%
same,"Pt in urine, mean","[2]; urine collected 0-2 h, mean of 3 mice",15.772
same,Pt in urine,"[2]; urine collected 0-2 h, mouse-1",15.461
same,Pt in urine,"[2]; urine collected 0-2 h, mouse-2",17.665
same,Pt in urine,"[2]; urine collected 0-2 h, mouse-3",14.190
same,"Pt in urine, mean","[2]; urine collected 2-4 h, mean of 3 mice",13.380
same,Pt in urine,"[2]; urine collected 2-4 h, mouse-1",13.090
same,Pt in urine,"[2]; urine collected 2-4 h, mouse-2",14.953
same,Pt in urine,"[2]; urine collected 2-4 h, mouse-3",12.095
same,"Pt in urine, mean","[2]; urine collected 4-8 h, mean of 3 mice",9.236
same,Pt in urine,"[2]; urine collected 4-8 h, mouse-1",9.456
same,Pt in urine,"[2]; urine collected 4-8 h, mouse-2",10.608
same,Pt in urine,"[2]; urine collected 4-8 h, mouse-3",7.644
same,"Pt in urine, mean","[2]; urine collected 8-12 h, mean of 3 mice",3.408
same,Pt in urine,"[2]; urine collected 8-12 h, mouse-1",3.228
same,Pt in urine,"[2]; urine collected 8-12 h, mouse-2",4.327
same,Pt in urine,"[2]; urine collected 8-12 h, mouse-3",2.669
same,Cytotoxicity,[3],Low
same,FL at 710 nm,[3],Low
same,PA at 700 nm,[3],Low
same,PA at 750 nm,[3],Low
same,"Compound found in excreta (%), Supplementary Table S5",[4],1.424% and 1.642% and 1.178%
same,"Compound found in excreta (%), Supplementary Table S6",[4],0.04756% and 0.06874% and 0.05951%
